Results: patent US9771369B2, “Compounds and methods for kinase modulation, and indications therefor” (Plexxikon Inc., priority 2014, dated 2017)

target: c-Kit kinase (Homo sapiens (Human), UniProt P10721); assay: c-Kit biochemical assay (AlphaScreen kinase activity)
In short: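 AlphaScreen: c-Kit phosphorylates biotin-(E4Y)3 (100 nM) at 10 μM ATP, pH 7.2 HEPES buffer with Mg/Mn, 5% DMSO, 1 h room temperature; streptavidin donor and PY30 acceptor beads detect product. Second format: 100 μM ATP, 30 nM biotin-(E4Y)10, pH 7.5. IC50 from 8-point 1:3 dilution curves.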

Sequence of c-Kit kinase (P10721 26-976): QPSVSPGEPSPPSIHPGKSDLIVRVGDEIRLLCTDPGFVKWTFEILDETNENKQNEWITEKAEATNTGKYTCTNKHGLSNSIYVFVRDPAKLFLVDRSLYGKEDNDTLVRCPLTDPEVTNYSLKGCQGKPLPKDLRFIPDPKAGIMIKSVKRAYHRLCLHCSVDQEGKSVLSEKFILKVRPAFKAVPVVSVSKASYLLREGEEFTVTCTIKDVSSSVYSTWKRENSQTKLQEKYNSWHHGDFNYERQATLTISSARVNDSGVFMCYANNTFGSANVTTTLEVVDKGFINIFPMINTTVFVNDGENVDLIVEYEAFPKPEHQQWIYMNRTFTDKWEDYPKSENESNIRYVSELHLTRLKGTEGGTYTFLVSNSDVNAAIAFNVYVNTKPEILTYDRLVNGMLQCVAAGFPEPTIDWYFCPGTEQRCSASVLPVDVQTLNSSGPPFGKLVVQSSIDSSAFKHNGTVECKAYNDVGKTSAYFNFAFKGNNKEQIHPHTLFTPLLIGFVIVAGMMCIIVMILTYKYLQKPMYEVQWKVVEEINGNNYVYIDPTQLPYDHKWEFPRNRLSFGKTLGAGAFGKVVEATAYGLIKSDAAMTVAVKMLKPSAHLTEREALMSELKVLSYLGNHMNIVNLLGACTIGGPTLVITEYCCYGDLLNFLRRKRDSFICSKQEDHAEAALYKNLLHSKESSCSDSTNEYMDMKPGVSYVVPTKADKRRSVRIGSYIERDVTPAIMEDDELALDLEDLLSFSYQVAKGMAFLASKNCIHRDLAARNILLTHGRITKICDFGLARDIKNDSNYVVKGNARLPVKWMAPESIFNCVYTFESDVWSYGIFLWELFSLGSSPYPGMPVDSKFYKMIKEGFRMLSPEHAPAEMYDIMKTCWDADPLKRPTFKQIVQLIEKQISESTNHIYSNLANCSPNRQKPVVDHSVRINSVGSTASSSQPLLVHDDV

Compound | IC50 [µM]
Cc1nc(C2CCN(c3ncnc4[nH]c(-c5ccc(F)cc5)cc34)CC2)[nH]c1-c1ccc(F)cc1 [P-3006, 6-(4-fluorophenyl)-4-[4-[5-(4-fluorophenyl)-4-methyl-1H-imidazol-2-yl]-1-piperidyl]-7H-pyrrolo[2,3-d]pyrimidine] | 0.0001 to 1
Cc1ccc(-c2[nH]c(C3CCN(c4ncnc5[nH]c(-c6ccc(C#N)cc6)cc45)CC3)nc2C)cc1 [P-3089, 4-[4-[4-[4-methyl-5-(p-tolyl)-1H-imidazol-2-yl]-1-piperidyl]-7H-pyrrolo[2,3-d]pyrimidin-6-yl]benzonitrile] | 0.0001 to 1
Cc1ccc(-c2[nH]c(C3CCN(c4ncnc5[nH]c(-c6ccc(C#N)cc6)cc45)CC3)nc2C)s1 [P-3090, 4-[4-[4-[4-methyl-5-(5-methyl-2-thienyl)-1H-imidazol-2-yl]-1-piperidyl]-7H-pyrrolo[2,3-d]pyrimidin-6-yl]benzonitrile] | 0.0001 to 1
COc1cc(-c2cc3c(N4CCC(c5nc(C)c(-c6ccc(OC(C)C)cc6)[nH]5)CC4)ncnc3[nH]2)ccn1 [P-3091, 4-[4-[5-(4-isopropoxyphenyl)-4-methyl-1H-imidazol-2-yl]-1-piperidyl]-6-(2-methoxy-4-pyridyl)-7H-pyrrolo[2,3-d]pyrimidine] | 0.0001 to 1
Cc1nc(C2CCN(c3ncnc4[nH]c(-c5ccc(F)cc5)cc34)CC2)[nH]c1-c1ccc(OC(C)C)cc1 [P-3092, 6-(4-fluorophenyl)-4-[4-[5-(4-isopropoxyphenyl)-4-methyl-1H-imidazol-2-yl]-1-piperidyl]-7H-pyrrolo[2,3-d]pyrimidine] | 0.0001 to 1
Cc1nc(C2CCN(c3ncnc4[nH]c(-c5ccc(C#N)cc5)cc34)CC2)[nH]c1-c1ccc(OC(C)C)cc1 [P-3093, 4-[4-[4-[5-(4-isopropoxyphenyl)-4-methyl-1H-imidazol-2-yl]-1-piperidyl]-7H-pyrrolo[2,3-d]pyrimidin-6-yl]benzonitrile] | 0.0001 to 1
CCOc1cc(-c2[nH]c(C3CCN(c4ncnc5[nH]c(-c6ccc(F)cc6)cc45)CC3)nc2C)ccc1C [P-3094, 4-[4-[5-(3-ethoxy-4-methyl-phenyl)-4-methyl-1H-imidazol-2-yl]-1-piperidyl]-6-(4-fluorophenyl)-7H-pyrrolo[2,3-d]pyrimidine] | 0.0001 to 1
